The source of these data is US20250213571A1, “TYK2 INHIBITORS AND USES THEREOF” (Alumis Inc., priority 2022, published 2025).

For series [1], the target named is human TYK2 (JH2domain-pseudokinase) (Homo sapiens (Human), UniProt P29597). Description: TYK2 JH2 domain binding assay (KINOMEscan). The method, boiled down: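 KINOMEscan competition: DNA-tagged NFkB-fusion kinase domains from HEK293 extracts (<0.1 nM) bound immobilized ligand with compound for 1 hour at room temperature, 0.9% DMSO. Bead-retained kinase was quantified by qPCR. Kd came from 11-point 3-fold series from 30,000 nM top, in duplicate, Hill fit with slope −1.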
human TYK2 (JH2domain-pseudokinase), sequence (P29597 556-888): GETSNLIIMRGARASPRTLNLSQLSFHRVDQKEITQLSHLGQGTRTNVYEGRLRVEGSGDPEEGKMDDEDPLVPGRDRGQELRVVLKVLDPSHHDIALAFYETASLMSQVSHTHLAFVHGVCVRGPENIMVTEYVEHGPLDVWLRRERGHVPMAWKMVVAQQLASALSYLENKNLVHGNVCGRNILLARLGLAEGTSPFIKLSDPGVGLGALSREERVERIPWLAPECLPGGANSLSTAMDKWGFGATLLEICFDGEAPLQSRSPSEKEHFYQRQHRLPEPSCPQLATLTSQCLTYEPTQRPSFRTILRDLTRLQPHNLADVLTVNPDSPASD

The target in another series is TYK2 JH1 (Homo sapiens (Human), UniProt P29597). The experiment in a line: TYK2 JH1 binding (Kd, Table 2). The note with it: JH1 domain.
TYK2 JH1, sequence (P29597 897-1176): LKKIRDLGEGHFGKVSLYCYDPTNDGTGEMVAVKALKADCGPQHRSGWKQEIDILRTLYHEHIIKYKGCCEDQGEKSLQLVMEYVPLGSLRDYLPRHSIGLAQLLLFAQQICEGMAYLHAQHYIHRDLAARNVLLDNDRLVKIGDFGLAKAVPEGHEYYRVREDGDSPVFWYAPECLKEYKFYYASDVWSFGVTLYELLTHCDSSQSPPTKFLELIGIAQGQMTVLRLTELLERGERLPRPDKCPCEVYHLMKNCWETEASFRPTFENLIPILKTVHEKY
In a further series the target is JAK1 JH2 (Homo sapiens (Human), UniProt P23458). The experiment in a line: JAK1 JH2 binding (Kd, Table 2). The note with it: JH2 domain.
JAK1 JH2, sequence (P23458 583-855): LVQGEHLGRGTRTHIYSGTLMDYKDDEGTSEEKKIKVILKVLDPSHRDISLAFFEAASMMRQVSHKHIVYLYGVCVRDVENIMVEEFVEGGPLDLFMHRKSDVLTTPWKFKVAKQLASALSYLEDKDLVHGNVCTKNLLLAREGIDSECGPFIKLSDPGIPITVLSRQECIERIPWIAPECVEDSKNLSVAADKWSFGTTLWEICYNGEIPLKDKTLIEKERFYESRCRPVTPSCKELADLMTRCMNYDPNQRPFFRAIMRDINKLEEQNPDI
The next series concerns IFNa, PBMCs, p-STAT3. The experiment in a line: IFNa induced p-STAT3 in PBMCs. The class given is cell-based. The note with it: Homo sapiens, PBMC, IFNa stimulated PBMCs.
For series [2], the system named is INFα Induced pSTAT5 in Human PBMC. Description: INFα induced pSTAT5 in human PBMC. It counts as cell-based. The note with it: 0.25 h, human PBMCs, INFα 5000 units/ml 15 minutes, p-STAT5, read-out: IFNa, PBMCs, p-STAT5 (IC50). As for the experimental part: Fresh Human PBMCs were resuspended in RPMI 1640 medium with 10% FBS. Cells were seeded in a round bottom 96-well plate at the concentration of 200,000 cells/well. A 10-point dilution series of test compound (top dose 10 uM, 1:5 dilution) was added to the well using the liquid dispenser (Tecan D300e) and incubated for 1 hour at 37 C. Then human INFα recombinant protein (R&D Systems) was added to the well at the final concentration of 5000 units/ml and incubated for 15 minutes at 37 C. Cell lysates were prepared and analyzed by Phospho STAT5 (Tyr693) Kit (Meso Scale Discovery) following manufacturer's protocol.
For calculation of the inhibition rate, the relative pSTAT5 signal of each well=pSTAT5 signal of each well−the average pSTAT5 signal of baseline.
The inhibition %=(the average pSTAT5 signal of INFα treatment wells−the relative of pSTAT5 signal in each compound containing well)/the average pSTAT5 signal of INFα treatment wells*100%
The curve was plotted as the inhibition % (y-axis) vs. compounds concentration (x-axis) and is fitted with log(inhibitor) vs. normalized response—Variable slope by GraphPad Prism7.0.

Another series has as its target JAK3 JH1 (Homo sapiens (Human), UniProt P52333). The experiment in a line: JAK3 JH1 binding (Kd, Table 2). To be noted: JH1 domain.
A further series concerns the target JAK2 JH2 (Homo sapiens (Human), UniProt O60674). The experiment in a line: JAK2 JH2 binding (Kd, Table 2). The note with it: JH2 domain.
The next series has as its target JAK2 JH1 (Homo sapiens (Human), UniProt O60674). The experiment in a line: JAK2 JH1 binding (Kd, Table 2). The note with it: JH1 domain.
The target in another series is JAK1 JH1 (Homo sapiens (Human), UniProt P23458). Description: JAK1 JH1 binding (Kd, Table 2). The note with it: JH1 domain.
JAK1 JH1, sequence (P23458 875-1153): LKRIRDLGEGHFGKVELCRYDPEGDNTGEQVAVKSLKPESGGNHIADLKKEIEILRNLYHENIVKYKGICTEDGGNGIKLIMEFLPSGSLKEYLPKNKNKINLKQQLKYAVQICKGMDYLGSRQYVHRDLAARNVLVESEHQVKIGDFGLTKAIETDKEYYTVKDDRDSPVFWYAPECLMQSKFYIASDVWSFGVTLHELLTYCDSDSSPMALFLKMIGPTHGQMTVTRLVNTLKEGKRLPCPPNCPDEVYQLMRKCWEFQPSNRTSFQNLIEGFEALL
For series [3] the following is noted: from COc1nc(Br)cn2c(C(=O)N[C@H](C)COCc3cc(N)c4nnn(C)c4c3)cnc12; cn_pd bond; 14-membered ring; Pd2(dba)3/Xantphos/Cs2CO3; 1,4-dioxane; 61.0 mM; 80.0 °C.

Some results are limits rather than exact numbers.

For orientation: Kd means the equilibrium constant for the complex coming apart. A word on the IC50: it is the concentration needed to halve the response being measured.

JAK2 JH1, sequence (O60674 849-1124): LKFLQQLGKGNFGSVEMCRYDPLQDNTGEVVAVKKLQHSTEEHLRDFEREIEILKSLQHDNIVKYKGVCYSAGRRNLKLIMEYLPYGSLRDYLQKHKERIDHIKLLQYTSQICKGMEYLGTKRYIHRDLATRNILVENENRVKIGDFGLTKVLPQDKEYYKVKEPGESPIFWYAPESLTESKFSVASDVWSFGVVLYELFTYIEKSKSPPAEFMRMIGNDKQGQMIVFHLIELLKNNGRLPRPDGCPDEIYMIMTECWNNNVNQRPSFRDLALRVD
JAK3 JH1, sequence (P52333 822-1111): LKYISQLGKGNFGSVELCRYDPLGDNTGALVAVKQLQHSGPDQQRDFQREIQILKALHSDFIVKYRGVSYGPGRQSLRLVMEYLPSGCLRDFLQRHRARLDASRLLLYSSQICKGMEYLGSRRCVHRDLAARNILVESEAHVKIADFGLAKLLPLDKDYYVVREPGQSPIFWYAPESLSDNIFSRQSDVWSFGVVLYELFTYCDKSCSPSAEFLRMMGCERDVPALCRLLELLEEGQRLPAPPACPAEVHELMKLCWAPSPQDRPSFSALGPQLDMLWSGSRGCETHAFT
JAK2 JH2, sequence (O60674 545-809): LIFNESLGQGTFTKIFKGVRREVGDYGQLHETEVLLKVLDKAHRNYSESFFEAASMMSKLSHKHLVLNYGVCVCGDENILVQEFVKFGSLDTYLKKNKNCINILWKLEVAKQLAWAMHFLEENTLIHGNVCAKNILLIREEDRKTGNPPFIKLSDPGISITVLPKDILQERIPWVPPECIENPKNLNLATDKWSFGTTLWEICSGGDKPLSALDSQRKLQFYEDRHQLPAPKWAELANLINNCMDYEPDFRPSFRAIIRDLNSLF

Turning to `CNc1cc2nn3c(cnc13)C(=O)N[C@H](CO)COCc1cc(c3nnn(C)c3c1)N2` [Compound 2], the Kd in [1] was under 10 nM; on TYK2 JH1 it was at least 30000 nM; on JAK1 JH2, 10 to 1000 nM. Moreover, the IC50 in the series on IFNa, PBMCs, p-STAT3 was at least 100 nM; in [2] it was under 50 nM.
For the compound `CNc1cc2nn3c(cnc13)C(=O)N[C@H](C)COCc1cc(c3nnn(C)c3c1)N2` [Compound 5], the dissociation constant (Kd) was under 10 nM in series [1]; at least 30000 nM on TYK2 JH1; at least 30000 nM on JAK3 JH1; 10000 to 30000 nM at JAK2 JH2; at least 30000 nM on JAK2 JH1; 1000 to 10000 nM at JAK1 JH2. The compound further came in with an equilibrium dissociation constant (Kd) on JAK1 JH1 of at least 30000 nM. Besides, the IC50 in the series on IFNa, PBMCs, p-STAT3 is under 50 nM; in [2], under 50 nM.
Regarding `CNc1cc2nn3c(cnc13)C(=O)N[C@H](C)COCc1cc(c3nn(C)nc3c1)N2` [Compound 6], the Kd in series [1] was under 10 nM; on TYK2 JH1 it was 1000 to 10000 nM; on JAK3 JH1 it was at least 30000 nM; at JAK2 JH2, 1000 to 10000 nM; at JAK2 JH1, at least 30000 nM; at JAK1 JH2 it was 10 to 1000 nM. This compound also registered a Kd on JAK1 JH1 of at least 30000 nM. In addition, the IC50 in the series on IFNa, PBMCs, p-STAT3 was under 50 nM; in series [2], under 50 nM.
In the case of `CNc1cc2nn3c(cnc13)C(=O)N[C@H](C)COCc1cc(c3c(c1)nnn3C)N2` [Compound 1], the Kd was under 10 nM in [1]; 1000 to 10000 nM at TYK2 JH1; at least 30000 nM on JAK3 JH1; 1000 to 10000 nM at JAK2 JH2; at least 30000 nM at JAK2 JH1; 10 to 1000 nM at JAK1 JH2. On JAK1 JH1, this compound yielded a Kd of at least 30000 nM. Also, the 50% inhibitory concentration (IC50) was under 50 nM in the series on IFNa, PBMCs, p-STAT3 and under 50 nM in [2].
Consider `COc1nc2cn3c(cnc13)C(=O)N[C@H](C)COCc1cc(c3nnn(C)c3c1)N2` [Compound 79], for which, in series [3], the ring closure, yield after HPLC amounted to 14%. Besides, the Kd in series [1] was 1000 to 10000 nM; at TYK2 JH1, at least 30000 nM; on JAK1 JH2 it was at least 30000 nM.
